The results in this text go back to US8748418B2, “1,4-oxazepines as BACE1 and/or BACE2 inhibitors” (Hoffmann-La Roche Inc., priority 2011, dated 2014).

One experiment addresses BACE2 (Homo sapiens (Human), UniProt Q9Y5Z0). Description: Immunofluorescence Resonance Energy Transfer (FRET) assay for BACE2 inhibition. The class given is biochemical. To be noted: TMEM27-based peptide substrate 5 μM, pH 4.5. The procedure:
Immunofluorescence Resonance Energy Transfer (FRET) Assay for BACE2 Inhibition:
BACE2 enzyme ectodomain (derived from plasmid “pET17b-T7-hu proBACE2”) was prepared as described in Ostermann et al., “Crystal Structure of Human BACE2 in Complex with a Hydroxyethylamine Transition-state Inhibitor”, Journal of Molecular Biology 2006, 355, 249-261. The pro-enzyme was stored at 4° C. at a concentration of 70 μg/ml.
The FRET assay was performed essentially as described in Grüninger-Leitch et al., Journal of Biological Chemistry (2002) 277(7) 4687-93 (“Substrate and inhibitor profile of BACE (beta-secretase) and comparison with other mammalian aspartic proteases”). In summary, a peptide is designed that is cleaved by the protease. The peptide is labelled with dabcyl at the N terminus and Lucifer Yellow at the C-terminus, such that for an intact peptide the Lucifer Yellow fluorescence is quenched by the dabcyl. When the peptide is cut by BACE2, the quenching is removed and a fluorescent signal is generated.
The assay was performed as described in Grueninger et al. 2002 at pH 4.5 using a substrate concentration of 5 μM. A FRET peptide based on the TMEM27 sequence was devised. dabcyl-[…]-LucY (SEQ ID NO: 1).
The assay readout is the initial rate of change of fluorescence intensity giving a relative measure of BACE2 activity. Small values correspond to high inhibition and larger values to low inhibition. […] IC50 values were determined using these assay values generated for a range of inhibitor concentrations and the curve fitting software XLfit (IDBS) using the Sigmoidal Dose-Response Model.

For the next experiment, the target named is BACE1 (Homo sapiens (Human), UniProt P56817). Description: Cellular Aβ-lowering assay (Aβ40 ELISA in HEK293 cells expressing human APP695). Conditions: HEK293 cells stably transfected with human APP wt (APP695), Aβ40 in supernatant after 18-20 hrs. The experiment is classed as cell-based. The procedure:
Cellular Aβ-Lowering Assay:
Human HEK293 cells which are stably transfected with a vector expressing a cDNA of the human APP wt gene (APP695) were used to assess the potency of the compounds in a cellular assay. The cells were seeded in 96-well microtiter plates in cell culture medium (Iscove, plus 10% (v/v) fetal bovine serum, glutamine, penicillin/streptomycin) to about 80% confluence and the compounds were added at a 10× concentration in 1/10 volume of medium without FCS containing 8% DMSO (final concentration of DMSO was kept at 0.8% v/v). After 18-20 hrs incubation at 37° C. and 5% CO2 in a humidified incubator the culture supernatant was harvested for the determination of Aβ40 concentrations. 96 well ELISA plates (e.g., Nunc MaxiSorb) were coated with monoclonal antibody which specifically recognize the C-terminal end of Aβ40 (Brockhaus et al., NeuroReport 9, 1481-1486; 1998). After blocking of non-specific binding sites with e.g. 1% BSA and washing, the culture supernatants were added in suitable dilutions together with a horseradish peroxidase-coupled Aβ detection antibody (e.g., antibody 4G8, Senetek, Maryland Heights, Mo.) and incubated for 5 to 7 hrs. Subsequently the wells of the microtiter plate were washed extensively with Tris-buffered saline containing 0.05% Tween 20 and the assay was developed with tetramethylbenzidine/H2O2 in citric acid buffer. After stopping the reaction with one volume 1NH2SO4 the reaction was measured in an ELISA reader at 450 nm wavelength. The concentrations of Aβ in the culture supernatants were calculated from a standard curve obtained with known amounts of pure Aβ peptide.

BACE1, sequence (P56817 46-501): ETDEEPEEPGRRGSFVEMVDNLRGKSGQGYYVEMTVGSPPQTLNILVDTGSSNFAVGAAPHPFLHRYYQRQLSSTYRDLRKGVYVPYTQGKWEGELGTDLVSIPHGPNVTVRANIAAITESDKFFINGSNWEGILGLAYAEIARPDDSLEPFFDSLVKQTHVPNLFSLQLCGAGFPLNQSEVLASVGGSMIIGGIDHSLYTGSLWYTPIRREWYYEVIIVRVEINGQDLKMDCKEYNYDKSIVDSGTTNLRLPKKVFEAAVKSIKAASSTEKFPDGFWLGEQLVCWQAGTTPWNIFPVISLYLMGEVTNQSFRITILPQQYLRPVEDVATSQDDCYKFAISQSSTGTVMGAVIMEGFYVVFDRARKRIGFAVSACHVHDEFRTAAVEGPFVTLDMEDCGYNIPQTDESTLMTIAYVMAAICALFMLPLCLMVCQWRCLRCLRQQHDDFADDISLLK
BACE2, sequence (Q9Y5Z0 63-473): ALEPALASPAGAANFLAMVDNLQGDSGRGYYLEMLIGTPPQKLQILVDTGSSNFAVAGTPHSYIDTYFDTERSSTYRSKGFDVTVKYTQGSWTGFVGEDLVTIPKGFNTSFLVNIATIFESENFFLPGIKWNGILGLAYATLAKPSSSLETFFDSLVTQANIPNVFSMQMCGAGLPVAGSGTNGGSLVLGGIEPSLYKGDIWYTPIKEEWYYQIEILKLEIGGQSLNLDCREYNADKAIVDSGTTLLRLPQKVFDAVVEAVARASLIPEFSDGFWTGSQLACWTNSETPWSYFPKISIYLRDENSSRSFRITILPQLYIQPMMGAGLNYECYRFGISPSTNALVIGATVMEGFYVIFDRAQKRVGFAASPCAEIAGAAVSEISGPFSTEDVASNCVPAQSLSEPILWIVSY

As for `C[C@]1(c2cc(N[C@H]3CCc4cc(Cl)cnc43)ccc2F)N=C(N)COCC1(F)F` [Example 8, [3-((R)-3-Amino-6,6-difluoro-5-methyl-2,5,6,7-tetrahydro-[1,4]oxazepin-5-yl)-4-fluoro-phenyl]-((S)-3-chloro-6,7-dihydro-5H-[1]pyrindin-7-yl)-amine], the concentration for half-maximal inhibition (IC50) against BACE2 was determined as 30 nM; against BACE1, 90 nM.
`C[C@]1(c2cc(NCc3nn(C(F)F)cc3Cl)ccc2F)N=C(N)COC[C@@H]1F` [Example 2, (5R,6R)-5-{5-[(4-Chloro-1-difluoromethyl-1H-pyrazol-3-ylmethyl)-amino]-2-fluoro-phenyl}-6-fluoro-5-methyl-2,5,6,7-tetrahydro-[1,4]oxazepin-3-ylamine]: the IC50 on BACE2 worked out at 35 nM; on BACE1, 40 nM.
Taken in the same sequence, the figures for `C[C@]1(c2cc(NC3CCCOC3)ccc2F)N=C(N)COC[C@@H]1F` (stereo partly drawn) [Example 4, (5R,6R)-6-Fluoro-5-[2-fluoro-5-(tetrahydro-pyran-3-ylamino)-phenyl]-5-methyl-2,5,6,7-tetrahydro-[1,4]oxazepin-3-ylamine] were 73 nM and 400 nM.
Consider `CC1(C)OCC(N)=N[C@](C)(c2cc(Nc3cncc(F)c3)ccc2F)C1(F)F` [Example 23, (R)-6,6-Difluoro-5-[2-fluoro-5-(5-fluoro-pyridin-3-ylamino)-phenyl]-5,7,7-trimethyl-2,5,6,7-tetrahydro-[1,4]oxazepin-3-ylamine], for which the figures for the IC50 against BACE2 and against BACE1 were 1360 nM and 440 nM, respectively.
Taken in the same sequence, the figures for `CC1(C)OCC(N)=N[C@](C)(c2cc(Nc3ccc(F)cc3)ccc2F)C1(F)F` [Example 19, (R)-6,6-Difluoro-5-[2-fluoro-5-(4-fluoro-phenylamino)-phenyl]-5,7,7-trimethyl-2,5,6,7-tetrahydro-[1,4]oxazepin-3-ylamine] were 4160 nM and 310 nM.
On to `CC1(C)OCC(N)=N[C@](C)(c2cc(N[C@H]3CCc4cc(C#N)cnc43)ccc2F)C1(F)F` [Example 12, (S)-7-[3-((R)-3-Amino-6,6-difluoro-5,7,7-trimethyl-2,5,6,7-tetrahydro-[1,4]oxazepin-5-yl)-4-fluoro-phenylamino]-6,7-dihydro-5H-[1]pyrindine-3-carbonitrile], for which the concentration for half-maximal inhibition (IC50) against BACE2 was determined as 5 nM; against BACE1 it was 120 nM.

In general, IC50 refers to the concentration that gives 50% inhibition.
